Data on four molecules can be found in ChEMBL document CHEMBL4813990, “One-step modification to identify dual-inhibitors targeting both pancreatic triglyceride lipase and Niemann-Pick C1-like 1” (Eur J Med Chem, 2021).

Calls of active or inactive are those of the source. The rule behind the calls is not given here.

Experiment [1] concerns Caco-2. In words: Inhibition of PTL expression in human Caco-2 cells at 0.1 to 100 uM incubated for 24 hrs by Western blot analysis. The format is functional, cell-based. The following applies: dose 0.1-100 µM. On the technique in general: Immunoblotting shows a protein as a band on a membrane.
For experiment [2], the target named is T1, NPC1-like intracellular cholesterol transporter 1 (Homo sapiens) (UniProt Q9UHC9).
T1 sequence (whole entry): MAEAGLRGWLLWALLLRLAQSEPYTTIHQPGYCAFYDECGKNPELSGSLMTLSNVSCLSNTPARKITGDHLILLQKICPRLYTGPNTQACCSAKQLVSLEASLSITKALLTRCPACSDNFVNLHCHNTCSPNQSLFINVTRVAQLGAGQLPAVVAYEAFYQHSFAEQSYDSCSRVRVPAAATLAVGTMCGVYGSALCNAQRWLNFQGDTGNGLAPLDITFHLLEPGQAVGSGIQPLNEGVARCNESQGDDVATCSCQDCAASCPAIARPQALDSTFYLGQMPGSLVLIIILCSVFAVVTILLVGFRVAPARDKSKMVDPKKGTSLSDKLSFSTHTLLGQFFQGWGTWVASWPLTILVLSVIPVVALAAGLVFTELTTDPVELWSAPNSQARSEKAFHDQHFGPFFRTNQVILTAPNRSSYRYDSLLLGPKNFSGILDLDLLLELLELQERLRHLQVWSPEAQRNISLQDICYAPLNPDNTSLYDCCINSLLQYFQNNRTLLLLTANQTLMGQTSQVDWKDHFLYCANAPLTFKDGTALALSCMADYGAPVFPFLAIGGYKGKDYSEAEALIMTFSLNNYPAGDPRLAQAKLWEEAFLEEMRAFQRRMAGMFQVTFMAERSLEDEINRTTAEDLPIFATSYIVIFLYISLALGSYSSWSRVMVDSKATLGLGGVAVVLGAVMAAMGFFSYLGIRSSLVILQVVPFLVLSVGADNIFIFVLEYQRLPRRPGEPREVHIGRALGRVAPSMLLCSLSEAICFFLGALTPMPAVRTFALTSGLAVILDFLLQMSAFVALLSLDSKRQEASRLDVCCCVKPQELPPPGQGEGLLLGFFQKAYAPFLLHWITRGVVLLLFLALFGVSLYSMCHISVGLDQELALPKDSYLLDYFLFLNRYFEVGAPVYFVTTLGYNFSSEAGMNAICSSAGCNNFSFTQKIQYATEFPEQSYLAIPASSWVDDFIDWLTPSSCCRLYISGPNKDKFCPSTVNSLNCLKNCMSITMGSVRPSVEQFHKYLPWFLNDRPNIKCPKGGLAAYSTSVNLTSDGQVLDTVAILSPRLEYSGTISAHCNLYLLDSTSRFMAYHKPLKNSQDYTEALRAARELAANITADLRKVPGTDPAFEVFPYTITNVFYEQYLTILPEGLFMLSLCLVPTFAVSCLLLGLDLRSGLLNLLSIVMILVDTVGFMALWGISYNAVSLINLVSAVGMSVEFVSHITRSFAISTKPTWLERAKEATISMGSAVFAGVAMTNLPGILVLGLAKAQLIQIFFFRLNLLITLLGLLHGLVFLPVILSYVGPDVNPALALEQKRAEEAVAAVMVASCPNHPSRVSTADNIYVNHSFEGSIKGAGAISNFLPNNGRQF
The experiment in a line: Inhibition of NPC1L1 in human Caco-2 cells assessed as decrease in uptake of cholesterol-d6 at 50 uM by HPLC-MS analysis. The format is cell-based.

The target of experiment [3] is T1, NPC1-like intracellular cholesterol transporter 1 (Homo sapiens). In words: Non-competitive inhibition of NPC1L1 in human Caco-2 cells assessed as decrease in uptake of cholesterol at 50 uM by HPLC-MS based Lineweaver-Burk double reciprocal plot analysis. The class given is cell-based.
The subject of experiment [4] is Caco-2. The experiment in a line: Inhibition of NPC1L1 mRNA expression in human Caco-2 cells at 100 uM incubated for 24 hrs by qRT-PCR analysis. The format is functional, cell-based. A general note: In qPCR the cycle at which signal appears reflects the starting amount.
The subject of experiment [5] is Caco-2. The experiment in a line: Inhibition of NPC1L1 expression in human Caco-2 cells at 0.1 to 100 uM incubated for 24 hrs by Western blot analysis. The following applies: dose 0.1-100 µM. The class given is functional, cell-based.
The target of experiment [6] is T1, NPC1-like intracellular cholesterol transporter 1 (Homo sapiens). The experiment in a line: Binding affinity to NPC1L1 (unknown origin) at 6.25 to 100 uM by SPR analysis. The following applies: dose 6.25-100 µM.
Experiment [7] relates to Caco-2. In words: Inhibition of PTL mRNA expression in human Caco-2 cells at 100 uM incubated for 24 hrs by qRT-PCR analysis. The format is functional, cell-based.

As to `CCCCCCCCCCC[C@@H](C[C@@H]1OC(=O)[C@H]1CCCCCC)OC(=O)c1ccc(O)cc1`, the inhibition entry (with Caco-2 [1]; in experiment [2]; in experiment [3]; in the experiment with Caco-2 [7]) was “Active” each time. The inhibition entry with Caco-2 [4] and with Caco-2 [5] was “inactive” each time. Moreover, the result in experiment [6] was Active.

As to `O=C1[C@H](CC[C@H](O)c2ccc(F)cc2)[C@@H](c2ccc(O)cc2)N1c1ccc(F)cc1`, the inhibition entry (in the experiment on Caco-2 [1]; in experiment [2]; in the experiment on Caco-2 [7]) was “Active” in each case. In addition, the inhibition result in the experiment on Caco-2 [4] and in the experiment with Caco-2 [5] was “inactive” in each case.

For `CCCCCCCCCCC[C@@H](C[C@@H]1OC(=O)[C@H]1CCCCCC)OC(=O)[C@H](CC(C)C)NC=O`, the inhibition result (with Caco-2 [1]; in experiment [2]) was “Active” each time. For the same molecule, the inhibition entry in the experiment on Caco-2 [5] is “inactive”. In experiment [6], the result was Active.

On to `CCCCCCCCCCC[C@@H](C[C@@H]1OC(=O)[C@H]1CCCCCC)OC(=O)c1cccc(O)c1`, for which the outcome in experiment [6] was Active.
